Experiments:
[1] = tested on: corn; test: Test B pre/postemergence corn; format: in vivo, Zea mays
In short: (§1)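 Herbicidal effect was estimated by eye on a ten-point control scale after plants spent twelve to sixteen days in a greenhouse following soil or foliar treatment. Foliar sprays targeted plants at one to four leaves; all doses were formulated in a non-phytotoxic solvent with surfactant.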

[2] = tested on: duck salad; test: Test B flood test duck salad; format: in vivo, Heteranthera limosa
In short: (§2)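 Read-out is a visual response score from 0 (no effect) to 10 (complete control), assigned by comparison with untreated controls. Treatment was applied at the 2-leaf stage, and plants stayed in the greenhouse for twelve to sixteen days before scoring.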

[3] = tested on: soybean; test: Test B pre/postemergence soybean; format: in vivo, Glycine max
In short: as §1

[4] = tested on: morningglory; test: Test B pre/postemergence morningglory; format: in vivo, Ipomoea hederacea
In short: as §1

[5] = tested on: pigweed; test: Test B pre/postemergence pigweed; format: in vivo, Amaranthus retroflexus
In short: as §1

[6] = tested on: giant foxtail; test: Test B pre/postemergence giant foxtail; format: in vivo, Setaria faberii
In short: as §1

[7] = tested on: velvetleaf; test: Test B pre/postemergence velvetleaf; format: in vivo, Abutilon theophrasti
In short: as §1

[8] = tested on: sugar beet; test: Test B pre/postemergence sugar beet; format: in vivo, Beta vulgaris
In short: as §1

[9] = tested on: blackgrass; test: Test B pre/postemergence blackgrass; format: in vivo, Alopecurus myosuroides
In short: as §1

[10] = tested on: bedstraw; test: Test B pre/postemergence bedstraw; format: in vivo, Galium aparine
In short: as §1

[11] = tested on: rape; test: Test B pre/postemergence rape; format: in vivo, Brassica napus
In short: as §1

[12] = tested on: surinam grass; test: Test B pre/postemergence surinam grass; format: in vivo, Brachiaria decumbens
In short: as §1

[13] = tested on: bamyardgrass; test: Test B flood test barnyardgrass; format: in vivo, Echinochloa crus-galli
In short: as §2

[14] = tested on: purple nutsedge; test: Test B pre/postemergence purple nutsedge; format: in vivo, Cyperus rotundus
In short: as §1

[15] = tested on: cocklebur; test: Test B pre/postemergence cocklebur; format: in vivo, Xanthium strumarium
In short: as §1

[16] = tested on: smallflower flatsedge; test: Test B flood test smallflower flatsedge; format: in vivo, Cyperus difformis
In short: as §2

[17] = Postemergence, Rate 125 g/ha, scale 0 to 10, 0 is no effect, 10 is complete control
[18] = Preemergence, Rate 62 g/ha, scale of 0 to 10 where 0 is no effect and 10 is complete control
[19] = Preemergence, Rate 250 g/ha, scale of 0 to 10 where 0 is no effect and 10 is complete control
[20] = Preemergence, Rate 500 g/ha, scale of 0 to 10 where 0 is no effect and 10 is complete control
[21] = Rate 62 g/ha, Postemergence, scale 0 to 10 (0 no effect, 10 complete control)
[22] = Rate 500 g/ha, Postemergence, scale 0 to 10, 0 no effect, 10 complete control
[23] = Rate 62 g/ha, headed Pre-emergence (flood test species), scale 0 to 10 (0 no effect, 10 complete control)
[24] = Rate 125 g/ha, Pre-emergence, flood test species, scale 0 to 10 where 0 is no effect and 10 is complete control
[25] = Rate 250 g/ha, Pre-emergence, flood-test species, scale 0 to 10, 0 is no effect, 10 is complete control
[26] = Rate 500 g/ha, Pre-emergence, flood test species, scale 0 to 10 (0 no effect, 10 complete control)
[27] = Rate 250 g/ha, Postemergence, scale of 0 to 10 where 0 is no effect and 10 is complete control

Cc1c(-n2c(=O)on(C(=O)N(c3ccc(Cl)cc3)C(C)C)c2=O)ccc2ccccc12 [Compound 336]
Plant response rating, Corn [1, 17]: 0 | Corn plant response rating [1, 18]: 0 | Corn plant response rating (0 to 10 scale) ([1]; Preemergence, Rate 125 g/ha): 0 | Corn plant response rating [1, 19]: 0 | Corn plant response rating [1, 20]: 0 | Corn plant response rating [1, 21]: 0 | Plant response rating, Corn [1, 22]: 0 | Ducksalad plant response rating [2, 23]: 0 | Ducksalad plant response rating [2, 24]: 0 | Ducksalad plant response rating [2, 25]: 0 | Ducksalad plant response rating [2, 26]: 0 | Plant response rating, Soybean [3, 17]: 1 | Soybean plant response rating [3, 18]: 0 | Soybean plant response rating (0 to 10 scale) ([3]; Preemergence, Rate 125 g/ha): 0 | Soybean plant response rating [3, 19]: 0 | Soybean plant response rating [3, 20]: 0 | Soybean plant response rating [3, 21]: 1 | Plant response rating, Soybean [3, 22]: 2 | Plant response rating, Morningglory [4, 17]: 0 | Morningglory plant response rating [4, 18]: 0 | Morningglory plant response rating (0 to 10 scale) ([4]; Preemergence, Rate 125 g/ha): 0 | Morningglory plant response rating [4, 19]: 0 | Morningglory plant response rating [4, 20]: 0 | Morningglory plant response rating [4, 21]: 0 | Plant response rating, Morningglory [4, 22]: 0 | Plant response rating, Redroot pigweed [5, 17]: 0 | Redroot pigweed plant response rating [5, 18]: 0 | Redroot pigweed plant response rating (0 to 10 scale) ([5]; Preemergence, Rate 125 g/ha): 0 | Redroot pigweed plant response rating [5, 19]: 0 | Redroot pigweed plant response rating [5, 20]: 0 | Redroot pigweed plant response rating [5, 21]: 0 | Plant response rating, Redroot pigweed [5, 22]: 0 | Plant response rating, Giant foxtail [6, 17]: 0 | Giant foxtail plant response rating [6, 18]: 0 | Giant foxtail plant response rating (0 to 10 scale) ([6]; Preemergence, Rate 125 g/ha): 0 | Giant foxtail plant response rating [6, 19]: 0 | Giant foxtail plant response rating [6, 20]: 0 | Giant foxtail plant response rating [6, 21]: 0 | Plant response rating, Giant foxtail [6, 22]: 0 | Plant response rating, Velvetleaf [7, 17]: 0 | Velvetleaf plant response rating [7, 18]: 0 | Velvetleaf plant response rating (0 to 10 scale) ([7]; Preemergence, Rate 125 g/ha): 0 | Velvetleaf plant response rating [7, 19]: 0 | Velvetleaf plant response rating [7, 20]: 0 | Velvetleaf plant response rating [7, 21]: 0 | Plant response rating, Velvetleaf [7, 22]: 0 | Plant response rating, Sugarbeets [8, 17]: 0 | Sugarbeets plant response rating [8, 18]: 0 | Sugarbeets plant response rating (0 to 10 scale) ([8]; Preemergence, Rate 125 g/ha): 0 | Sugarbeets plant response rating [8, 19]: 0 | Sugarbeets plant response rating [8, 20]: 0 | Sugarbeets plant response rating [8, 21]: 0 | Plant response rating, Sugarbeets [8, 22]: 0 | Plant response rating, Blackgrass [9, 17]: 0 | Blackgrass plant response rating [9, 18]: 0 | Blackgrass plant response rating (0 to 10 scale) ([9]; Preemergence, Rate 125 g/ha): 0 | Blackgrass plant response rating [9, 19]: 0 | Blackgrass plant response rating [9, 20]: 0 | Blackgrass plant response rating [9, 21]: 0 | Plant response rating, Blackgrass [9, 27]: 0 | Plant response rating, Blackgrass [9, 22]: 0 | Plant response rating, Bedstraw [10, 17]: 0 | Bedstraw plant response rating [10, 18]: 0 | Bedstraw plant response rating (0 to 10 scale) ([10]; Preemergence, Rate 125 g/ha): 0 | Bedstraw plant response rating [10, 19]: 0 | Bedstraw plant response rating [10, 20]: 0 | Bedstraw plant response rating [10, 21]: 0 | Plant response rating, Bedstraw [10, 27]: 0 | Plant response rating, Bedstraw [10, 22]: 0 | Plant response rating, Rape [11, 17]: 0 | Rape plant response rating [11, 18]: 0 | Rape plant response rating (0 to 10 scale) ([11]; Preemergence, Rate 125 g/ha): 0 | Rape plant response rating [11, 19]: 0 | Rape plant response rating [11, 20]: 0 | Rape plant response rating [11, 21]: 0 | Plant response rating, Rape [11, 22]: 0 | Plant response rating, B. signalgrass [12, 17]: 0 | B. signalgrass plant response rating [12, 18]: 0 | B. signalgrass plant response rating (0 to 10 scale, 0 is no effect, 10 is complete control) ([12]; Preemergence, Rate 125 g/ha): 0 | B. signalgrass plant response rating [12, 19]: 0 | B. signalgrass plant response rating [12, 20]: 0 | B. signalgrass plant response rating [12, 21]: 0 | Plant response rating, B. signalgrass [12, 27]: 0 | Plant response rating, B. signalgrass [12, 22]: 0 | Barnyardgrass plant response rating [13, 23]: 0 | Barnyardgrass plant response rating [13, 24]: 0 | Barnyardgrass plant response rating [13, 25]: 0 | Barnyardgrass plant response rating [13, 26]: 0 | Plant response rating, Nutsedge [14, 17]: 0 | Nutsedge plant response rating [14, 18]: 0 | Nutsedge plant response rating (0 to 10 scale) ([14]; Preemergence, Rate 125 g/ha): 0 | Nutsedge plant response rating [14, 19]: 0 | Nutsedge plant response rating [14, 20]: 0 | Nutsedge plant response rating [14, 21]: 0 | Plant response rating, Nutsedge [14, 22]: 0 | Plant response rating, Cocklebur [15, 17]: 0 | Cocklebur plant response rating [15, 18]: 0 | Cocklebur plant response rating (0 to 10 scale) ([15]; Preemergence, Rate 125 g/ha): 0 | Cocklebur plant response rating [15, 19]: 0 | Cocklebur plant response rating [15, 20]: 0 | Cocklebur plant response rating [15, 21]: 0 | Plant response rating, Cocklebur [15, 22]: 0 | S. Flatsedge plant response rating [16, 23]: 0 | S. Flatsedge plant response rating [16, 24]: 0 | S. Flatsedge plant response rating [16, 25]: 0 | S. Flatsedge plant response rating [16, 26]: 0

From patent publication US6737383B1, “Herbicidal oxadiazolidines” (priority 1999, dated 2004)
